Key:
[1] = target: panel of more than 300 wild-type and mutant kinases (313 kinase panel) (Homo sapiens, UniProt P09619); assay: Kinase profiling in a biochemical assay panel (mobility shift assays and ELISA), %-inhibition at 1 μM; selectivity entropy; conditions: kinase PDGFRβ; 1 μM
[2] = target: panel of more than 300 wild-type and mutant kinases (313 kinase panel) (Homo sapiens, UniProt P15056, V600E); assay: as above
[3] = target: panel of more than 300 wild-type and mutant kinases (313 kinase panel) (Homo sapiens, UniProt P00533, L858R/T790M); assay: as above
panel of more than 300 wild-type and mutant kinases (313 kinase panel) (Homo sapiens, UniProt P00533, L858R/T790M), sequence (P00533 25-1210 T790M/L858R): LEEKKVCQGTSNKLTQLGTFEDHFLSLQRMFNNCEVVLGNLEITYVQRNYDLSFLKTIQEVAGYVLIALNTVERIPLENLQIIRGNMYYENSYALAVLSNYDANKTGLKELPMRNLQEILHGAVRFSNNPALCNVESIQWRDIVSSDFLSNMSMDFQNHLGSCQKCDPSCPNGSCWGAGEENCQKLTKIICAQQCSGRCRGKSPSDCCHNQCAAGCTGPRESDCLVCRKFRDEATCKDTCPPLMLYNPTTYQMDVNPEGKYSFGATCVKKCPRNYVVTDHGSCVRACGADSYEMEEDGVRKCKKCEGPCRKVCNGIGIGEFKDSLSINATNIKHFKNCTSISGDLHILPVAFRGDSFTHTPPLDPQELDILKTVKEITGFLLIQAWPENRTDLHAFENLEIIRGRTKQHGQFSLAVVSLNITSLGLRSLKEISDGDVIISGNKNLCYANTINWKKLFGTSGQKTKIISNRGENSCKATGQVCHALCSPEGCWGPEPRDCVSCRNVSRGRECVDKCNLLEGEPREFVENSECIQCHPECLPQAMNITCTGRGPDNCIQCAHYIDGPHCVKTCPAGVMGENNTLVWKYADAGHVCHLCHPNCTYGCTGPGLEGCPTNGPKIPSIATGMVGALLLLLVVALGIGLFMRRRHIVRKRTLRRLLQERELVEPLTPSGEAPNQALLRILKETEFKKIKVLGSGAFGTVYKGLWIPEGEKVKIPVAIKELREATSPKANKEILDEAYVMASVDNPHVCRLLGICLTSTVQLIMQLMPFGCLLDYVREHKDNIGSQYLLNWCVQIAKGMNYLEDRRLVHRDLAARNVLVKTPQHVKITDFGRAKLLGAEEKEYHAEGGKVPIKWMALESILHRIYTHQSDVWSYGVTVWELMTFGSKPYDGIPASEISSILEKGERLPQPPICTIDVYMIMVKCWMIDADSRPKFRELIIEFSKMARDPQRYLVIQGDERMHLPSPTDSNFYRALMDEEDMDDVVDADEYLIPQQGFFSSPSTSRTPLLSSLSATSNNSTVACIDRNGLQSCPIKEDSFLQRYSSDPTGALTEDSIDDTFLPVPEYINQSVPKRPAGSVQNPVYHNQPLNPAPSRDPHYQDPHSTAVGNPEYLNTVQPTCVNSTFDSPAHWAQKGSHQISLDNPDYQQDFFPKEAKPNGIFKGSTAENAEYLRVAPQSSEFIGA

[4] = target: panel of more than 300 wild-type and mutant kinases (313 kinase panel) (Homo sapiens, UniProt Q9UM73, R1275Q); assay: as above
panel of more than 300 wild-type and mutant kinases (313 kinase panel) (Homo sapiens, UniProt Q9UM73, R1275Q), sequence (Q9UM73 19-1620 R1275Q): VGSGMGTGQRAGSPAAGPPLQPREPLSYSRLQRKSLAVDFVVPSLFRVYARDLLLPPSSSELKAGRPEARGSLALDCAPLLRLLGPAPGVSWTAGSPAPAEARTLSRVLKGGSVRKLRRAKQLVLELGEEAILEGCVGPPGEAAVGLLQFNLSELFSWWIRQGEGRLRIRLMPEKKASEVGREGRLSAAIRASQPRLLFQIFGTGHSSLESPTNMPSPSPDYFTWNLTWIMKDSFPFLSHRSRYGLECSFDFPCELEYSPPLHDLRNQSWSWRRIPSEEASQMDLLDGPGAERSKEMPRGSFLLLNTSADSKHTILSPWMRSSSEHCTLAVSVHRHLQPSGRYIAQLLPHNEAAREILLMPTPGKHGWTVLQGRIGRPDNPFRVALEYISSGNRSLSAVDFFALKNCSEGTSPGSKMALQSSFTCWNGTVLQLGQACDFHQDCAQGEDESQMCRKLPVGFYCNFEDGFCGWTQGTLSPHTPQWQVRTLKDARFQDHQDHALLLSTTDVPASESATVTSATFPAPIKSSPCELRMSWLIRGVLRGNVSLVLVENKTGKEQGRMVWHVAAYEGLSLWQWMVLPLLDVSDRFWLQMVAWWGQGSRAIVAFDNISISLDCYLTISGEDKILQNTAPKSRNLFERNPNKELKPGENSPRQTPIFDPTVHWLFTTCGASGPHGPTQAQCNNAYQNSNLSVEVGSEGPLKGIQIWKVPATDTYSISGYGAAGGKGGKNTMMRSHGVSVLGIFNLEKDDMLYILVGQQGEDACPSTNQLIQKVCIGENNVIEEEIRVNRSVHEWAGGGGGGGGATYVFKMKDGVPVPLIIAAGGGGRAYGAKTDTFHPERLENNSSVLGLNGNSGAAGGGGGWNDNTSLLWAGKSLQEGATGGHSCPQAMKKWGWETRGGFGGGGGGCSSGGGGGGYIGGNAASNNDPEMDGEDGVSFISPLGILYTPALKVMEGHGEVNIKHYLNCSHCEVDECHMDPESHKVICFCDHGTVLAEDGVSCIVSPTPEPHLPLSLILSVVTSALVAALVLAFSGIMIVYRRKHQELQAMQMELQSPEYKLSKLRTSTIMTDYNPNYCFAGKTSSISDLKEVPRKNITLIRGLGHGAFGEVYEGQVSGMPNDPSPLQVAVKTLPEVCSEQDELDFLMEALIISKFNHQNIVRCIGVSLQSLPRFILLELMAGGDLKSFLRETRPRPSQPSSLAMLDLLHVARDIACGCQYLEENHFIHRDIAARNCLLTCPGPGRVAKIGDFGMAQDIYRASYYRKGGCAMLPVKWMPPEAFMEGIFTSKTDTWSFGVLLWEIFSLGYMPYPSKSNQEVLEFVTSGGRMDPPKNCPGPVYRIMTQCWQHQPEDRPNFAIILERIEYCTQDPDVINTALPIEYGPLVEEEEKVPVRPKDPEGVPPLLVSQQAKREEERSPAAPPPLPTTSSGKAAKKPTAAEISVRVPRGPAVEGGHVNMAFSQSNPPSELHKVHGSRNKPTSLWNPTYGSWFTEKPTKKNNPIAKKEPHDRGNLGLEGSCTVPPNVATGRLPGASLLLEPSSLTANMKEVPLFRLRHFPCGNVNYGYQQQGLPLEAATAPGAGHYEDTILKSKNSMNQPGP

[5] = system: mutant versus wild-type cell lines of the 44 cell line panel; assay: Anova analysis of cell panel IC50s against cancer gene changes; standardized mean difference (targetedness); conditions: BRAF oncogene targeting, Figure 5D
[6] = target: panel of more than 300 wild-type and mutant kinases (313 kinase panel) (Homo sapiens, UniProt P22612); assay: Kinase profiling in a biochemical assay panel (mobility shift assays and ELISA), %-inhibition at 1 μM; selectivity entropy; conditions: kinase PKACγ; 1 μM
[7] = target: panel of more than 300 wild-type and mutant kinases (313 kinase panel) (Homo sapiens, UniProt O75914); assay: as above; conditions: kinase PAK3; 1 μM
panel of more than 300 wild-type and mutant kinases (313 kinase panel) (Homo sapiens, UniProt O75914), sequence (O75914 whole entry, change not shown): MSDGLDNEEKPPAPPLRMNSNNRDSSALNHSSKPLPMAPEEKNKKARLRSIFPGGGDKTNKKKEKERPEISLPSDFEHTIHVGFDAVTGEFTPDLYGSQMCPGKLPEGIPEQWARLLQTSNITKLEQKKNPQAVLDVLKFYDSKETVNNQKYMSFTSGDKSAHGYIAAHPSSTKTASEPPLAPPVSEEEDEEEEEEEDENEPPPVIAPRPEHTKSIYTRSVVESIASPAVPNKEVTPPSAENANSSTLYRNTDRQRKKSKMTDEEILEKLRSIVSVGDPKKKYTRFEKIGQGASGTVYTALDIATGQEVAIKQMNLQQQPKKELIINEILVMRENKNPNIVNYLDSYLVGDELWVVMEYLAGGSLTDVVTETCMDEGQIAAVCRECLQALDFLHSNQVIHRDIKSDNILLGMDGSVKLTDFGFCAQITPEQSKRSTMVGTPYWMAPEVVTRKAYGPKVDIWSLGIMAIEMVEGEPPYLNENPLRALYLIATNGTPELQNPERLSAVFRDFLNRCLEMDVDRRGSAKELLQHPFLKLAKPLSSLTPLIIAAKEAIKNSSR

FKBP12 = conditions: value indicates binding interaction with FKBP12; read-out: IC50 (nM) on relevant targets: mTOR; cited from earlier work
[8] = target: T1, panel of more than 300 wild-type and mutant kinases (313 kinase panel) (Homo sapiens, UniProt P42679); assay: Kinase profiling in a biochemical assay panel (mobility shift assays and ELISA), %-inhibition at 1 μM; selectivity entropy
T1 sequence (P42679 1-507): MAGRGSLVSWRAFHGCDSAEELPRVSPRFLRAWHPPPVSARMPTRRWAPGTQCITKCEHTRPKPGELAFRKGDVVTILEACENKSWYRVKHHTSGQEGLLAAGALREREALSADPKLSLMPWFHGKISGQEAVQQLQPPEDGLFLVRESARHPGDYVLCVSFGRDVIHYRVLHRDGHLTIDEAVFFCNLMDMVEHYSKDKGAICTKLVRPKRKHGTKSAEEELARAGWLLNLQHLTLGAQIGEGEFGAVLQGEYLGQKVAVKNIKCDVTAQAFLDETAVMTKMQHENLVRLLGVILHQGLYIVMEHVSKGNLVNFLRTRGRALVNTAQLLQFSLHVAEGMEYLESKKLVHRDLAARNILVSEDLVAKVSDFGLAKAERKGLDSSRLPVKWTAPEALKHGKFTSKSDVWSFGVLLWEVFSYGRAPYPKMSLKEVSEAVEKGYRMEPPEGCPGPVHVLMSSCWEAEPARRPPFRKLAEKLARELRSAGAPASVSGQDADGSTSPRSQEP

[9] = target: T2, panel of more than 300 wild-type and mutant kinases (313 kinase panel) (Homo sapiens, UniProt O00444); assay: as above
T2 sequence (O00444 1-970): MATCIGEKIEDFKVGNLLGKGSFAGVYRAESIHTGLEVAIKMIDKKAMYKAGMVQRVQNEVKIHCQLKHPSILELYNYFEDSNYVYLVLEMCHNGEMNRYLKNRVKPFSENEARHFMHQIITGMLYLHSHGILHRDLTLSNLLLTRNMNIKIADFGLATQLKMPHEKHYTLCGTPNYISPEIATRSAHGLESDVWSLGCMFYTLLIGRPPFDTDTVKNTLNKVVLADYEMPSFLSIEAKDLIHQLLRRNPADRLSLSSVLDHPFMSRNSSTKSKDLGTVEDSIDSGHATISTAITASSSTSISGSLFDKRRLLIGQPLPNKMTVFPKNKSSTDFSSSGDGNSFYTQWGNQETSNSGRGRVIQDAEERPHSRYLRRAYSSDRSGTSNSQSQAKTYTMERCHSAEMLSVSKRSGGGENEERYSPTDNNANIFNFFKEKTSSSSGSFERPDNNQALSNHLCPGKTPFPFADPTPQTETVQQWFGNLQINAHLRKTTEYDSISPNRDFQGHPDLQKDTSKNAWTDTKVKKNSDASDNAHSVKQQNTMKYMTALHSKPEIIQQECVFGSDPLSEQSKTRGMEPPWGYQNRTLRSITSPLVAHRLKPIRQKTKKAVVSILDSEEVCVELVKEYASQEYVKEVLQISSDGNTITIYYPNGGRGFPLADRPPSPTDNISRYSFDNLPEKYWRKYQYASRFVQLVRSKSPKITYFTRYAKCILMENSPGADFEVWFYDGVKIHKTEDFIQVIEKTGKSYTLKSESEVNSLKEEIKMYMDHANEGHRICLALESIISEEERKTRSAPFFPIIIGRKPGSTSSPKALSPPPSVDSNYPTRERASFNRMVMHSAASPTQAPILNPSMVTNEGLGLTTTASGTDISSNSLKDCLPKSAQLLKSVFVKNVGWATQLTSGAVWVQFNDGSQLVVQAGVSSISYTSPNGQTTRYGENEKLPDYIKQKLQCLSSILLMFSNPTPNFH

[10] = target: panel of more than 300 wild-type and mutant kinases (313 kinase panel) (Homo sapiens, UniProt P00519, T315I); assay: as above
[11] = target: panel of more than 300 wild-type and mutant kinases (313 kinase panel) (Homo sapiens, UniProt P00519, E255K); assay: as above
[12] = kinase BRAF(V600E), 1 μM compound
[13] = kinase ALK(R1275Q), 1 μM compound
[14] = kinase EGFR(T790M/L858R), compound at 1 μM
[15] = kinase ABL(T315I), 1 μM compound
[16] = kinase ABL(E255K), 1 μM compound

panel of more than 300 wild-type and mutant kinases (313 kinase panel) (Homo sapiens, UniProt P15056, V600E), sequence (P15056 whole entry V600E): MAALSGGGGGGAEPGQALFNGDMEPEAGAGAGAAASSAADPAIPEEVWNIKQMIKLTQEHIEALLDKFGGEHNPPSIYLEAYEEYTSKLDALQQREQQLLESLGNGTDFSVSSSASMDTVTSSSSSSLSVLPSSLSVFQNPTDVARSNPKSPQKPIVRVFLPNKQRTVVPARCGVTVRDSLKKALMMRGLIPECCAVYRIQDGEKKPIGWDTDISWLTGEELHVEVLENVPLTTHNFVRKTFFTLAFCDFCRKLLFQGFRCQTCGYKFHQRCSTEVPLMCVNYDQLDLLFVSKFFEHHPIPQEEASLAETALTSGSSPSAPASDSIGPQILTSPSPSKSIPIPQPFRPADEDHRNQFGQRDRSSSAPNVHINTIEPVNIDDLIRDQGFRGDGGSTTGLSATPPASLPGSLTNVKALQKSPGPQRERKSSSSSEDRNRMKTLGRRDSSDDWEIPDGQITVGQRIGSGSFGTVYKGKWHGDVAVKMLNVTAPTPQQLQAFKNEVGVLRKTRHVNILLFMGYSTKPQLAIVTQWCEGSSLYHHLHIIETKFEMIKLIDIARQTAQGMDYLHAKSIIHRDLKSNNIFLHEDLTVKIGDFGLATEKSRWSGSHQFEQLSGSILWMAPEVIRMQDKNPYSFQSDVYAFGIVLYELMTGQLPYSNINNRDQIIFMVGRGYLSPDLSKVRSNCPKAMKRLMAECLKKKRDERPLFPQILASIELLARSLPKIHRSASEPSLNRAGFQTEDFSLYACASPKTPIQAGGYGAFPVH

Row | Structure (SMILES) | %-inhibition of PDGFRβ [1] [%] | %-inhibition, BRAF(V600E) [2, 12] [%] | %-inhibition, ALK(R1275Q) [4, 13] [%] | %-inhibition of PKACγ [6] [%] | %-inhibition of EGFR(T790M/L858R) [3, 14] [%] | further results
1 | Cc1ccc(C(=O)Nc2ccc(CN3CCN(C)CC3)c(C(F)(F)F)c2)cc1C#Cc1cnc2cccnn12 [ponatinib] | 102 | 84 | 45 |  |  | %-inhibition of EGFR(T790M/L858R) ([3]; 1 µM): 49%
2 | CC(C)(C)c1nc(-c2cccc(NS(=O)(=O)c3c(F)cccc3F)c2F)c(-c2ccnc(N)n2)s1 [dabrafenib] |  |  |  |  |  | targetedness (standardized logIC50 difference) [5]: -4.96
3 | COc1cc(Nc2c(C#N)cnc3cc(OCCCN4CCN(C)CC4)c(OC)cc23)c(Cl)cc1Cl [bosutinib] | 95 |  | 61 | 53 |  | 
4 | Cc1nc(Nc2ncc(C(=O)Nc3c(C)cccc3Cl)s2)cc(N2CCN(CCO)CC2)n1 [dasatinib] |  |  |  |  |  | %-inhibition of PAK3 [7]: -1.28%
5 | CO[C@H]1C[C@@H]2CC[C@@H](C)[C@@](O)(O2)C(=O)C(=O)N2CCCC[C@H]2C(=O)O[C@H]([C@H](C)C[C@@H]2CC[C@@H](OC(=O)C(C)(CO)CO)[C@H](OC)C2)CC(=O)[C@H](C)/C=C(\C)[C@@H](O)[C@@H](OC)C(=O)[C@H](C)C[C@H](C)/C=C/C=C/C=C/1C [temsirolimus] | -2.27 | -0.864 | -1.39 | -6 | -2.75 | IC50 (FKBP12): ~2 nM
6 | C#Cc1cccc(Nc2ncnc3cc(OCCOC)c(OCCOC)cc23)c1 [erlotinib] |  |  |  |  |  | %-inhibition of CTK ([8]; 1 µM): 22%; %-inhibition, BRAF(V600E) ([2]; 1 µM): 8%; %-inhibition of PLK4 ([9]; 1 µM): 9%
7 | CCCS(=O)(=O)Nc1ccc(F)c(C(=O)c2c[nH]c3ncc(-c4ccc(Cl)cc4)cc23)c1F [vemurafenib] | 33 |  | 3.57 | -3 | 5 | %-inhibition, ABL(T315I) [10, 15]: 7%; %-inhibition, ABL(E255K) [11, 16]: 2.49%
8 | N#CC[C@H](C1CCCC1)n1cc(-c2ncnc3[nH]ccc23)cn1 [ruxolitinib] |  | 6 |  | 11 | -0.336 | %-inhibition, ABL(T315I) ([10]; 1 µM): 4%; %-inhibition, ABL(E255K) ([11]; 1 µM): 0.0579%; %-inhibition, ALK(R1275Q) ([4]; 1 µM): 49%
9 | CC(=O)Nc1cccc(-n2c(=O)n(C3CC3)c(=O)c3c(Nc4ccc(I)cc4F)n(C)c(=O)c(C)c32)c1 [trametinib] | 3.44 | 37 | -1.83 | 2 | -6.51 | 
10 | COc1cc2c(Nc3ccc(Br)cc3F)ncnc2cc1OCC1CCN(C)CC1 [vandetanib] |  | 18 |  | 6 |  | 
11 | CS(=O)(=O)CCNCc1ccc(-c2ccc3ncnc(Nc4ccc(OCc5cccc(F)c5)c(Cl)c4)c3c2)o1 [lapatinib] | 2.84 |  |  |  |  | %-inhibition of CTK ([8]; kinase CTK, compound at 1 μM): -0.699%; %-inhibition, ABL(T315I) [10, 15]: 9%; %-inhibition, ABL(E255K) [11, 16]: -4.67%; %-inhibition of PAK3 [7]: 4.27%; %-inhibition of PLK4 ([9]; 1 µM): -4.47%
12 | CO[C@H]1C[C@@H]2CC[C@@H](C)[C@@](O)(O2)C(=O)C(=O)N2CCCC[C@H]2C(=O)O[C@H]([C@H](C)C[C@@H]2CC[C@@H](OCCO)[C@H](OC)C2)CC(=O)[C@H](C)/C=C(\C)[C@@H](O)[C@@H](OC)C(=O)[C@H](C)C[C@H](C)/C=C/C=C/C=C/1C [everolimus] | -3.52 | 2 | -4.29 | -7.41 | -5 | IC50 (FKBP12): ~2 nM
13 | CCN(CC)CCNC(=O)c1c(C)[nH]c(/C=C2\C(=O)Nc3ccc(F)cc32)c1C [sunitinib] |  |  |  |  |  | %-inhibition of CTK ([8]; kinase CTK, compound at 1 μM): 28%; %-inhibition of PLK4 ([9]; kinase PLK4, 1 μM): 58%
14 | CNC(=O)c1cc(Oc2ccc(NC(=O)Nc3ccc(Cl)c(C(F)(F)F)c3)c(F)c2)ccn1 [regorafenib] |  |  | 5 | -0.823 | 1.68 | %-inhibition, ABL(T315I) [10, 15]: 66%; %-inhibition, ABL(E255K) [11, 16]: 33%
15 | O=S(=O)(c1cccc2cnccc12)N1CCCNCC1 [fasudil] | 12 | 3.36 | -1.83 |  |  | %-inhibition, ABL(T315I) [10, 15]: 1.7%; %-inhibition, ABL(E255K) [11, 16]: -3%
16 | C[C@@H](Oc1cc(-c2cnn(C3CCNCC3)c2)cnc1N)c1c(Cl)ccc(F)c1Cl [crizotinib] | 18 | 10 |  | -6.52 |  | 
17 | Cc1cn(-c2cc(NC(=O)c3ccc(C)c(Nc4nccc(-c5cccnc5)n4)c3)cc(C(F)(F)F)c2)cn1 [nilotinib] |  |  |  |  |  | %-inhibition of CTK ([8]; 1 µM): 7%; %-inhibition of PAK3 [7]: -4%; %-inhibition of PLK4 ([9]; kinase PLK4, 1 μM): 21%
18 | Cc1ccc(Nc2nccc(N(C)c3ccc4c(C)n(C)nc4c3)n2)cc1S(N)(=O)=O [pazopanib] | 96 |  |  |  | 43 | %-inhibition of CTK ([8]; kinase CTK, compound at 1 μM): 4.69%; %-inhibition of PAK3 [7]: 6%; %-inhibition of PLK4 ([9]; kinase PLK4, 1 μM): 72%
19 | COc1cc2nccc(Oc3ccc(NC(=O)C4(C(=O)Nc5ccc(F)cc5)CC4)cc3)c2cc1OC [cabozantinib] | 84 | 37 | 79 | -2.59 | 29 | %-inhibition, ABL(E255K) [11, 16]: 25%

— article PMC3961306, “Comparison of the Cancer Gene Targeting and Biochemical Selectivities of All Targeted Kinase Inhibitors Approved for Clinical Use” (PLoS ONE, 2014)
